The values below come from ChEMBL document CHEMBL3526034 (Drug Metab Dispos, 2013).

This data set concerns the target T1, BCRP (ABCG2) (Homo sapiens, UniProt Q9UNQ0).
T1 sequence (Q9UNQ0 whole entry): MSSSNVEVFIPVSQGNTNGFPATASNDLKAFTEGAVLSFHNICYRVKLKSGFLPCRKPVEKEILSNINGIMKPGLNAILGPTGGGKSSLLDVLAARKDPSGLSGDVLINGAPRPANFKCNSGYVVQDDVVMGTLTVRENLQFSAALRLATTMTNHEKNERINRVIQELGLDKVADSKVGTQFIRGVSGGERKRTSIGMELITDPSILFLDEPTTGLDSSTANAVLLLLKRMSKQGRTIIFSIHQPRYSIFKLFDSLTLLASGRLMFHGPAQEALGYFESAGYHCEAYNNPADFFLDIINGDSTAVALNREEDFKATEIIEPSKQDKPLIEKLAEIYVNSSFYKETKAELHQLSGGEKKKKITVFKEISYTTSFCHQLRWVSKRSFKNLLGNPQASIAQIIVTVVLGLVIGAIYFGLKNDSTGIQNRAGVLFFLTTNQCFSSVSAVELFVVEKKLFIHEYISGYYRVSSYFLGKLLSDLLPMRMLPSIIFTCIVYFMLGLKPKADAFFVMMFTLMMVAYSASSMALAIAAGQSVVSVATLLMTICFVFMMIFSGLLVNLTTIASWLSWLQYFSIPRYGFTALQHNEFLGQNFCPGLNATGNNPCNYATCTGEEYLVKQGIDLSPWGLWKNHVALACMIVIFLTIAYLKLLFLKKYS
In words: Activity at human BCRP expressed in MDCK2 cells assessed as apical to basolateral mass balance at 3 uM by liquid scintillation counting analysis. The class given is ADME, cell-based, MDCK-II. Conditions: read-out: Activity.

With `C[C@@H]1CCO[C@H]2Cn3cc(C(=O)NCc4ccc(F)cc4F)c(=O)c(O)c3C(=O)N12` [DOLUTEGRAVIR], the recovery at 3 µM stood at 81%.
